Here are results for four molecules from patent US9115093B2, “Substituted bicyclic dihydropyrimidinones and their use as inhibitors of neutrophil elastase activity” (Boehringer Ingelheim International GmbH, priority 2013, dated 2015).

Structures are written as SMILES. In brackets after ≈: the same amount, converted by molar mass.

The IC50 is the concentration that gives 50% inhibition. Low values mean inhibition by little substance, high ones a need for much substance. Broadly, the solubility is the concentration that dissolves in the medium under given conditions. Lower therefore signals a poorly soluble substance. As usually defined, the Aqueous solubility is how much of the substance goes into solution per volume. A high value points to much dissolved substance.

One series deals with T1, neutrophil elastase (Homo sapiens, UniProt P08246).
T1 sequence (P08246 30-247 limits assumed): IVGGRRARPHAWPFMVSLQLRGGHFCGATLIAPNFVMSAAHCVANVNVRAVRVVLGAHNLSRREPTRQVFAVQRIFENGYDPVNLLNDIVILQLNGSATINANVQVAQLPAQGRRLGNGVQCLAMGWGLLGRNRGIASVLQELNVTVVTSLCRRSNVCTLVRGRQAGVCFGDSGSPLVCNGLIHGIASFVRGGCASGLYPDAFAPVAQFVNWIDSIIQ
Briefly: Human Neutrophil Elastase Assay. Format: biochemical. Also noted: purchased Calbiochem 324681. The note with it: substrate MeOSuc-Ala-Ala-Pro-Val-AMC, pH 7.5, room temperature. The essentials: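 Readout: AMC fluorescence (ex 380, em 460 nm) after 60 min room-temperature reaction with 250 nM MeOSuc-AAPV-AMC, following 15 min compound–enzyme preincubation. Buffer: Tris/NaCl pH 7.5, 0.01% BSA.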

A further series can be described thus: Aqueous solubility. Format: physicochemical. The following applies: McIlvaine buffer pH 6.8, 2.5% DMSO, 24 h shaking; for solubility at 24 h: McIlvaine buffer with 2.5% DMSO. The protocol: Assay for Determination of Aqueous Solubility
The aqueous solubility of a compound is determined by comparing the amount dissolved in aqueous buffer (containing 2.5% DMSO) to the amount dissolved in an acetonitrile/water (1/1) solution. Starting from a 10 mM DMSO stock solution, aliquots are diluted with acetonitrile/water (1/1) and Mcllvaine buffer pH 6.8, respectively. After 24 h of shaking, the solutions or suspensions are filtered and analyzed by LC-UV. The amount dissolved in buffer is compared to the amount dissolved in the acetonitrile/water (1/1) solution. Solubility is measured from 0.001 to 0.125 mg/ml at a DMSO concentration of 2.5%. If more than 90% of the compound is dissolved in buffer, the value is marked with “>”.

A short description of series [1]: Metabolic stability with human liver microsomes. The class given is in vitro ADME. The following applies: pooled human liver microsomes, 37° C., 1 mg/ml protein, NADPH; for half-life at 1 nM: pH 7.6, read-out: t1/2 INVITRO. The protocol: Assay for the Determination of Metabolic Stability with Human Liver Microsomes
The metabolic degradation of the test compound is assayed at 37° C. with pooled human liver microsomes. The final incubation volume of […] per time point contains TRIS buffer pH 7.6 (0.1 M), magnesium chloride (5 mM), microsomal protein (1 mg/ml) and the test compound at a final concentration of […]. Following a short preincubation period at 37° C., the reactions are initiated by addition of beta-nicotinamide adenine dinucleotide phosphate, reduced form (NADPH, 1 mM) and terminated by transfering an aliquot into acetonitrile after different time points. Additionally, the NADPH-independent degradation is monitored in incubations without NADPH, terminated at the last time point. The rol remaining test compound after NADPH independent incubation is reflected by the parameter c(control) (metabolic stability). The quenched incubations are pelleted by centrifugation (10′000 g, 5 min) An aliquot of the supernatant is assayed by LC-MS/MS for the amount of parent compound.
The half-life (t1/2 INVITRO) is determined by the slope of the semilogarithmic plot of the concentration-time profile. The intrinsic clearance (CL_[…]) is calculated by considering the amount of protein in the incubation: CL_[…][μl/min/mg protein]=(ln 2/(half-life [min]*protein content [mg/ml]))*1′000.
The half-life (t1/2 INVITRO) values of selected compounds in the metabolic stability assay described above are listed in Table 15.
(Microsomes from liver hold many membrane-bound enzymes, among them those of drug oxidation.)

Series [2] in a line: Metabolic stability with human hepatocytes. The class given is in vitro ADME. The note with it: human hepatocyte suspension, 1 μM, scaled with well stirred model. The protocol: Assay for the Determination of Metabolic Stability with Human Hepatocytes
The metabolic degradation of the test compound is assayed in a human hepatocyte suspension. Human hepatocytes (typically cryopreserved) are incubated in an appropriate buffer system (e.g. Dulbecco's modified eagle medium plus 3.5 μg glucagon/500 mL, 2.5 mg insulin/500 mL and 3.75 mg/500 mL hydrocortison) containing 5% species serum. Following a (typically) […] preincubation in an incubator (37° C., 10% CO2), 5 μl of test compound solution (80 μM; from 2 mM stock solution in DMSO diluted 1:25 with medium) are added into 395 μl hepatocyte suspension (cell density in the range 0.25-5*10^6 cells/mL, typically 1*10^6 cells/mL; final concentration of test compound 1 μM, final DMSO concentration […]). The cells are incubated for six hours (incubator, orbital shaker) and samples (25 μl) are taken at 0, 0.5, 1, 2, 4 and 6 hours. Samples are transferred into acetonitrile and pelleted by centrifugation (5 min). The supernatant is transferred to a new 96-deepwell plate, evaporated under nitrogen and resuspended. The decline of parent compound is analyzed by LC-MS/MS.
The intrinsic clearance CL_[…] is calculated as follows: CL_[…]=Dose/AUC=(C0/CD)/(AUD+clast/k)*1′000/60 (C0: initial concentration in the incubation [μM], CD: cell density of vital cells [10^6 cells/mL], AUD: area under the data [μM*h], clast: concentration of last data point [μM], k: slope of the regression line for parent decline [h^−1])
The calculated in vitro hepatic intrinsic clearance can be scaled up to the intrinsic in vivo hepatic clearance and used to predict hepatic in vivo blood clearance (CL) by the use of a is liver model (well stirred model): CL_[…]_INVIVO [ml/min/kg]=(CL_[…] [μL/min/10^6 cells]* hepatocellularity[10^6 cells/g liver]*liver factor[g/kg bodyweight])/1′000 CL[ml/min/kg]=CL_[…]_INVIVO [ml/min/kg]*hepatic blood flow [ml/min/kg]/(CL_[…]_INVIVO [ml/min/kg]+hepatic blood flow [ml/min/kg]) Qh[%]=CL[ml/min/kg]/hepatic blood flow[ml/min/kg]) (Hepatocellularity, human: 120*10^6 cells/g liver; lver factor, human: 25.7 g/kg bodyweight; blood flow, human: 21 ml/(min*kg))
The predicted human hepatic in vivo blood clearance (CL) of selected compounds in the metabolic stability assay described above are listed in Table 16.

Turning to `N#Cc1ccc(C2C3=C(CCCC3=O)N(c3cccc(C(F)(F)F)c3)C(=O)N2C(=O)NCCO)cc1` (stereo not drawn) [Example 39.3], the IC50 on neutrophil elastase is less than 1 nM. For the same molecule, in “Aqueous solubility”, the concentration in solution (solubility at 24 h) was 6 µg/mL (≈ 12 µM). For the same molecule, in series [1], the half-life at 1 nM is greater than 2.17 h.

On to `CS(=O)(=O)CCNC(=O)N1C(=O)N(c2cccc(C(F)(F)F)c2)C2=C(C(=O)CCC2)C1c1ccc(C#N)cc1` (stereo not drawn) [Example 39.19], for which the half-inhibitory concentration (IC50) against neutrophil elastase was less than 1 nM. This molecule also yielded a solubility at 24 h in the series “Aqueous solubility” of 9 µg/mL (≈ 16.1 µM). Further, the “CL (predicted human hepatic in vivo blood clearance)” value in series [2] is 0 mL/min/kg. For the same molecule, the half-life at 1 nM in series [1] is greater than 2.17 h.

With `CC(C)NC(=O)N1C(=O)N(c2cccc(C(F)(F)F)c2)C2=C(C(=O)CCC2)[C@H]1c1ccc(C#N)cc1S(C)(=O)=O` [Example 75.3], the IC50 against neutrophil elastase was less than 1 nM. This molecule displayed an Aqueous solubility in “Aqueous solubility” of 9 µg/mL. Besides, the “CL (predicted human hepatic in vivo blood clearance)” value in series [2] is 0 mL/min/kg. Also, the “t1/2 INVITRO” value in series [1] was greater than 2.17 h.

In the case of `CS(=O)(=O)c1cc(C#N)ccc1[C@@H]1C2=C(CCCC2=O)N(c2cccc(C(F)(F)F)c2)C(=O)N1C(=O)NCC(F)F` [Example 75.7], on neutrophil elastase, the 50% inhibitory concentration (IC50) was less than 1 nM. Besides, in “Aqueous solubility”, the Aqueous solubility was 5 µg/mL. For the same molecule, the “CL (predicted human hepatic in vivo blood clearance)” value in series [2] was 0 mL/min/kg. In addition, in series [1], the “t1/2 INVITRO” value is greater than 2.17 h.
